{"source": "patent US20040152733A1", "about": "“Duloxetine for treatment of hot flashes” (priority 2004, published 2004)", "key": {"hot flashes [1]": {"system": "hot flashes", "assay": "Randomized double-blind placebo controlled clinical trial of duloxetine for hot flashes (Example 1)", "conditions": "Group 1: Duloxetine 60 mg QD + Placebo; eight to twelve weeks", "experimental": "Patients eligible for a clinical trial include women who are either 1) naturally menopausal; or 2) pre-menopausal but had undergone bilateral oophorectomy surgery within four weeks prior to the commencement of the study. All the women in the study experience a minimum of thirty five hot flashes per week. […] The women or men are divided into two groups for a randomized double-blind placebo controlled study.\nThe groups receive drug or placebo as illustrated below:\nGroup 1: Duloxetine (60 mg QD)+Placebo\nFor three weeks both groups are administered placebo only. For eight to twelve weeks thereafter, each group is administered drug or placebo. Data is collected (numbers/severity of hot flashes experienced) from each participant during and at the end of the test period."}, "hot flashes [2]": {"system": "hot flashes", "conditions": "menopausal women (survivors of breast cancer) suffering from hot flashes; versus only 20% with placebo; cited from earlier work"}}}
{"molecule": "CNCCC(Oc1cccc2ccccc12)c1cccs1", "note": "(centres unmarked) [duloxetine, N-methyl-3-(1-naphthalenyloxy)-3-(2-thienyl)propanamine]", "values": [{"measurement": "incidence of hot flashes relative to the placebo groups (Groups 2 and 3)", "setting": "hot flashes [1]", "value": "decrease"}]}
{"molecule": "COc1ccc(C(CN(C)C)C2(O)CCCCC2)cc1", "note": "(centres unmarked) [venlafaxine]", "values": [{"measurement": "treated menopausal women reporting a greater than 50% decrease in hot flash frequency", "setting": "hot flashes [2]", "value": 45, "unit": "%"}]}
